{"source": "patent US8071353B2", "about": "“Genetic remodeling in Bifidobacterium” (Nestec S.A., priority 2007, dated 2011)", "key": {"[1]": {"system": "B. animalis subsp. lactis strain NCC 9034 (tetW deleted)", "test": "E-TEST (AB BIODISK) tetracycline MIC determination, tetW deletion strain", "assay_type": "cell-based, Bifidobacterium animalis subsp. lactis", "text": "(§1) In certain embodiments, the wild-type cell is resistant to a higher concentration of the antibiotic than the cell of the invention, i.e. the cell with the deleted gene. Sensitivity of a microbial cell to a particular antibiotic may be measured in any of a variety of manners. One convenient means for measuring antibiotic sensitivity to use disk diffusion assays, for example the E-test (commercially produced by AB BIODISK). The E-test system uses a predefined gradient of antibiotic concentrations on a plastic strip and can be used to determine the exact Minimum Inhibitory Concentration (MIC) of an antibiotic for a particular organism.\n(§2) In certain embodiments, the wild-type cell is resistant to a higher concentration of the antibiotic than the cell that results from the methods provided. Disk diffusion assays and related sensitivity tests such as the E-test (AB BIODISK) are preferred ways of measuring the sensitivity of a cell to an antibiotic. The Minimum Inhibitory Concentration (MIC), however determined, of an antibiotic for a particular organism is a convenient way to compare relative sensitivities.\n(§3) A commercial E-TEST (AB BIODISK) was used to determine the MIC for tetracycline of each strain."}, "[2]": {"system": "B. animalis subsp. lactis wild-type strain NCC 2818", "test": "E-TEST (AB BIODISK) tetracycline MIC determination, wild-type strain", "assay_type": "cell-based, Bifidobacterium animalis subsp. lactis", "conditions": "Bifidobacterium animalis, strain NCC 2818 (wild-type, operable tetW)", "text": "as §1, §2, §3"}, "[3]": {"system": "Bifidobacterium animalis subsp. lactis strain NCC 362 (wild-type)", "test": "E-TEST tetracycline MIC determination, FIG. 3 legend wild-type strain", "assay_type": "cell-based", "conditions": "FIG. 3 left panel, read-out: Resistance to tetracycline (MIC)", "text": "as §1, §3"}}}
{"smiles": "CN(C)[C@@H]1C(O)=C(C(N)=O)C(=O)[C@@]2(O)C(O)=C3C(=O)c4c(O)cccc4[C@@](C)(O)[C@H]3C[C@@H]12", "note": "[tetracycline]", "values": [{"measurement": "MIC", "setting": "[1]; Bifidobacterium animalis, read-out: MIC for tetracycline", "value": "~0.3", "unit": "µg/mL"}, {"measurement": "times more sensitive to tetracycline than parent wild-type strain NCC 2818", "setting": "[1]; NCC 9034 versus NCC 2818, ratio of E-TEST MICs", "value": "about 50 times"}, {"measurement": "MIC", "setting": "[2]", "value": 16, "unit": "µg/mL"}, {"measurement": "MIC", "setting": "[3]", "value": "~16", "unit": "µg/mL"}]}
